Measurements reported in patent publication US9303061B2, “Spiro compounds as Hepatitis C virus inhibitors” (Sunshine Luke Pharma Co., Ltd., priority 2011, dated 2016).

Tests used:
HCV GT1a replicon cells = test: HCV replicon assay, GT1a replicon cells (luciferase reporter / NEO gene qPCR); format: cell-based; settings: EC50 range against HCV 1a genotype, 72 hours incubation
Method: (§1) An HCV Replicon assay was utilized in the present disclosure, and was prepared, developed and validated as described in Science, 1999, 285 (5424), 110-3 and J. Virol., 2003, 77 (5), 3007-19.
(§2) HCV GT1a, GT1b and GT2a replicon cells were used to test the currently described compound series as well as wild-type cells HCV 1b and resistant cells Y93H, L31F, P32L and 1302V. GT1a, GT1b and GT2a are HCV Replicon System which is transfected HCV 1a, 1b, 2a genotype respectively. The system containing G418 resistance gene NEO and Luciferase Reporter Gene can be used to determine the level of HCV replication, and evaluate the effects of the compounds inhibiting HCV replication, by using a real-time quantitative polymerase chain reaction (qPCR) method to detect NEO, and chemiluminescence method to test Luciferase Reporter Gene.
(§3) 1. Testing EC50 of the Compounds by Luciferase Assay
(§4) The GT1a cells and GT1b cells were seeded into 96-well plates (8,000 cells in 125 μl/well) respectively; each compound was diluted to desired concentration using 5-fold serial dilutions protocol, 10 dose in duplicate, and added to wells with POD™ 810 Plate Assembler. The final concentration of DMSO was 0.5%; the plates were incubated in a CO2 incubator for 72 hours; after that, 40 μl of Luciferase assay substrate (Promega Bright-Glo) was added to each well, and detected by a chemiluminescence detection system (Topcount Microplate Scintillation and Luminescence Counter) 5 minutes later; data analysis.
(§5) 2. Testing EC50 of the Compounds by Detecting Antibiotic G418 Resistance Gene NEO Gene
(§6) The GT1a cells and GT1b cells were seeded into 96-well plates (8,000 cells in 125 μl/well) respectively; each compound was diluted to desired concentration using 5-fold serial dilutions protocol, 10 dose in duplicate, and added to wells with POD™ 810 Plate Assembler, the final concentration of DMSO was 0.5%; the cells were incubated in a CO2 incubator for 72 hours; quantitative PCR. • Sample preparation: the supernatant was removed, 100 μl of FCW buffer solution was added to each well, washed carefully and discarded the solution; 50 μl of lysate FCP was added to each well, the cells was lysed as PCR template and PCR template was diluted with DEPC water as sample template. • Quantitative PCR: preparation of reaction mixture according to PCR system; the reaction mixture was dispensed into a 384-well PCR reaction plate (specially for quantitative); and a standard template which was diluted in proportion was distributed into the plate; and the sample template was distributed into the plate; then the 384-well plate was sealed with closure plate membrane; the […] PCR machine was operated by procedures; data analysis.
(§7) 3. Data processing: EC50 values of compounds were analyzed by GRAPHPAD PRISM® software.

HCV GT1b replicon cells = test: HCV replicon assay, GT1b replicon cells (luciferase reporter / NEO gene qPCR); format: cell-based; settings: EC50 range against HCV 1b genotype, 72 hours incubation
Method: as §1, §2, §3, §4, §5, §6, §7

SMILES	EC50 (HCV GT1a replicon cells; Hepatitis C virus, GT1A)	EC50 (HCV GT1b replicon cells; Hepatitis C virus, GT1B, 72 h)	EC50 (HCV GT1b replicon cells)	EC50 (HCV GT1a replicon cells)
COC(=O)N[C@H](C(=O)N1CCC[C@H]1c1nc(-c2ccc(-c3ccc(-c4ccc(-c5cnc([C@@H]6CCCN6C(=O)[C@@H](NC(=O)OC)C(C)C)[nH]5)cc4)c4c3C(=O)C3(CCCC3)C4)cc2)c[nH]1)C(C)C [Example 1]	0.001 to 0.1 nM	1 to 10 nM	–	–
COC(=O)N[C@H](C(=O)N1CCC[C@H]1c1ncc(C#Cc2ccc(C#Cc3cnc([C@@H]4CCCN4C(=O)[C@@H](NC(=O)OC)C(C)C)[nH]3)c3c2CC2(CCCC2)C3=O)[nH]1)C(C)C [Example 2]	0.101 to 1 nM	> 10 nM	–	–
COC(=O)N[C@H](C(=O)N1CCC[C@H]1c1nc2ccc(-c3ccc(-c4ccc5nc([C@@H]6CCCN6C(=O)[C@@H](NC(=O)OC)C(C)C)[nH]c5c4)c4c3CC3(CCC(C)CC3)C4=O)cc2[nH]1)C(C)C (stereo partly shown) [Example 3]	0.001 to 0.1 nM	0.001 to 0.1 nM	–	–
COC(=O)N[C@H](C(=O)N1CCC[C@H]1c1nc2ccc(-c3ccc(-c4ccc5nc([C@@H]6CCCN6C(=O)[C@@H](NC(=O)OC)C(C)C)[nH]c5c4)c4c3CC3(CCC(C)CC3)C4)cc2[nH]1)C(C)C [Example 4]	0.001 to 0.1 nM	0.001 to 0.1 nM	–	–
COC(=O)N[C@H](C(=O)N1CCC[C@H]1c1nc2ccc(-c3ccc(-c4ccc5nc([C@@H]6CCCN6C(=O)[C@@H](NC(=O)OC)C(C)C)[nH]c5c4)c4c3CC3(CCCCC3)C4=O)cc2[nH]1)C(C)C [Example 5]	0.001 to 0.1 nM	0.101 to 1 nM	–	–
COC(=O)N[C@H](C(=O)N1CCC[C@H]1c1nc2ccc(-c3ccc(-c4ccc5nc([C@@H]6CCCN6C(=O)[C@@H](NC(=O)OC)C(C)C)[nH]c5c4)c4c3CC3(CCCCC3)C4)cc2[nH]1)C(C)C [Example 6]	0.001 to 0.1 nM	0.001 to 0.1 nM	–	–
COC(=O)N[C@H](C(=O)N1CCC[C@H]1c1ncc(C#Cc2ccc(C#Cc3cnc([C@@H]4CCCN4C(=O)[C@@H](NC(=O)OC)C(C)C)[nH]3)c3c2CC2(CCCC2)C3)[nH]1)C(C)C [Example 8]	0.001 to 0.1 nM	1 to 10 nM	–	–
CCC(C)[C@H](NC(=O)OC)C(=O)N1CCC[C@H]1c1nc2ccc(-c3ccc(-c4ccc(-c5cnc([C@@H]6CCCN6C(=O)[C@@H](NC(=O)OC)C(C)C)[nH]5)cc4)c4c3CC3(CCCC3)C4)cc2[nH]1 (stereo partly shown) [Example 11]	0.001 to 0.1 nM	0.001 to 0.1 nM	–	–
COC(=O)N[C@H](C(=O)N1CCC[C@H]1c1ncc(-c2ccc(-c3ccc(-c4cnc([C@@H]5CCCN5C(=O)[C@@H](NC(=O)OC)C(C)C)[nH]4)c4c3CC3(CCCC3)C4)cc2)[nH]1)C(C)C [Example 14]	0.001 to 0.1 nM	> 10 nM	–	–
COC(=O)N[C@H](C(=O)N1CC(F)(F)C[C@H]1c1ncc(-c2ccc(-c3ccc(-c4cnc([C@@H]5CC(F)(F)CN5C(=O)[C@@H](NC(=O)OC)C(C)C)[nH]4)c4c3CC3(CCCC3)C4)cc2)[nH]1)C(C)C [Example 15]	0.001 to 0.1 nM	> 10 nM	–	–
COC(=O)N[C@H](C(=O)N1CCC[C@H]1c1ncc(-c2ccc(-c3ccc(-c4cnc([C@@H]5CCCN5C(=O)[C@@H](NC(=O)OC)c5ccccc5)[nH]4)c4c3CC3(CCCC3)C4)cc2)[nH]1)c1ccccc1 [Example 16]	0.001 to 0.1 nM	> 10 nM	–	–
COC(=O)N[C@H](C(=O)N1CCC[C@H]1c1ncc(-c2ccc(-c3ccc(-c4cnc([C@@H]5CCCN5C(=O)[C@@H](NC(=O)OC)C(C)C)[nH]4)c4c3CC3(CCCC3)C4)s2)[nH]1)C(C)C [Example 17]	0.101 to 1 nM	> 10 nM	–	–
COC(=O)N[C@H](C(=O)N1C[C@@H](C)C[C@H]1c1ncc(-c2ccc(-c3ccc(-c4cnc([C@@H]5C[C@H](C)CN5C(=O)[C@@H](NC(=O)OC)C(C)C)[nH]4)c4c3CC3(CCCCC3)C4)cc2)[nH]1)C(C)C [Example 18]	0.001 to 0.1 nM	–	> 10 nM	–
COC(=O)N[C@H](C(=O)N1C[C@@H](C)C[C@H]1c1ncc(-c2ccc(-c3ccc(-c4cnc([C@@H]5C[C@H](C)CN5C(=O)[C@@H](NC(=O)OC)C(C)C)[nH]4)c4c3CC3(CCCCC3)C4)cc2)[nH]1)C(C)C [Example 20]	–	–	0.101 to 1 nM	0.001 to 0.1 nM
COC(=O)N[C@H](C(=O)N1CCC[C@H]1c1ncc(-c2ccc(-c3ccc(-c4ccc5nc([C@@H]6CCCN6C(=O)[C@@H](NC(=O)OC)C(C)C)[nH]c5c4)c4c3CC3(CCCC3)C4)nc2)[nH]1)C(C)C [Example 21]	0.001 to 0.1 nM	1 to 10 nM	–	–
COC(=O)N[C@H](C(=O)N1CCC[C@H]1c1nc2ccc(-c3ccc(-c4ccc5nc([C@@H]6CCCN6C(=O)[C@@H](NC(=O)OC)C(C)C)[nH]c5c4)c4c3CC3(CCCC3)C4)cc2[nH]1)C(C)C [Example 22]	0.001 to 0.1 nM	0.001 to 0.1 nM	–	–
COC(=O)N[C@H](C(=O)N1CCC[C@H]1c1ncc(-c2ccc(-c3ccc(-c4ccc5nc([C@@H]6CCCN6C(=O)[C@@H](NC(=O)OC)C(C)C)[nH]c5c4)c4c3CC3(CCCC3)C4)cc2)[nH]1)C(C)C [Example 23]	0.001 to 0.1 nM	0.001 to 0.1 nM	–	–
CCC(=O)N[C@H](C(=O)N1CCC[C@H]1c1ncc(-c2ccc(-c3ccc(C#Cc4cnc([C@@H]5CCCN5C(=O)[C@@H](NC(=O)OC)C(C)C)[nH]4)c4c3CC3(CCCC3)C4)cc2)[nH]1)C(C)C [Example 24]	0.001 to 0.1 nM	0.001 to 0.1 nM	–	–
COC(=O)N[C@H](C(=O)N1C[C@H](F)C[C@H]1c1ncc(-c2ccc(-c3ccc(-c4cnc([C@@H]5C[C@@H](F)CN5C(=O)[C@@H](NC(=O)OC)C(C)C)[nH]4)c4c3CC3(CCCC3)C4)cc2)[nH]1)C(C)C [Example 29]	0.001 to 0.1 nM	0.001 to 0.1 nM	–	–
COC(=O)N[C@H](C(=O)N1CCC[C@H]1c1ncc(-c2ccc(-c3ccc(-c4ccc5nc([C@@H]6CCCN6C(=O)[C@@H](NC(=O)OC)C(C)C)[nH]c5c4)c4c3C(=O)C3(CCCC3)C4)cc2)[nH]1)C(C)C [Example 36]	0.001 to 0.1 nM	0.001 to 0.1 nM	–	–
COC(=O)N[C@H](C(=O)N1CCC[C@H]1c1ncc(-c2ccc(-c3ccc(-c4cnc([C@@H]5CCCN5C(=O)[C@@H](NC(=O)OC)C(C)C)[nH]4)c4c3C(=O)C3(CCCC3)C4)cc2)[nH]1)C(C)C [Example 37]	1 to 10 nM	1 to 10 nM	–	–
COC(=O)N[C@H](C(=O)N1CCC[C@H]1c1ncc(-c2ccc(-c3ccc(-c4ccc(-c5cnc([C@@H]6CCCN6C(=O)[C@@H](NC(=O)OC)C(C)C)[nH]5)cc4)c4c3CC3(CCCC3)C4)cc2)[nH]1)C(C)C [Example 38]	0.101 to 1 nM	> 10 nM	–	–
COC(=O)N[C@H](C(=O)N1CCC[C@H]1C(=O)Nc1ccc(-c2ccc(-c3ccc(NC(=O)[C@@H]4CCCN4C(=O)[C@@H](NC(=O)OC)C(C)C)cc3)c3c2CC2(CCCC2)C3)cc1)C(C)C [Example 39]	0.001 to 0.1 nM	0.101 to 1 nM	–	–
COC(=O)N[C@H](C(=O)N1C[C@@H](C)C[C@H]1c1ncc(-c2ccc(-c3ccc(-c4ccc(-c5cnc([C@@H]6C[C@H](C)CN6C(=O)[C@@H](NC(=O)OC)C(C)C)[nH]5)cc4)c4c3CC3(CCCC3)C4)cc2)[nH]1)C(C)C [Example 40]	0.001 to 0.1 nM	1 to 10 nM	–	–
COC(=O)N[C@H](C(=O)N1CC2(CC2)C[C@H]1c1ncc(-c2ccc(-c3ccc(-c4ccc(-c5cnc([C@@H]6CC7(CC7)CN6C(=O)[C@@H](NC(=O)OC)C(C)C)[nH]5)cc4)c4c3CC3(CCCC3)C4)cc2)[nH]1)C(C)C [Example 41]	1 to 10 nM	> 10 nM	–	–
CCC(C)[C@H](NC(=O)OC)C(=O)N1C2CC2C[C@H]1c1ncc(-c2ccc(-c3ccc(-c4cnc([C@@H]5CC6CC6N5C(=O)[C@@H](NC(=O)OC)C(C)CC)[nH]4)c4c3CC3(CCCC3)C4)cc2)[nH]1 (stereo partly shown) [Example 43]	0.001 to 0.1 nM	> 10 nM	–	–
